Legend:
[1] = system: Yersinia pestis; test: Antibacterial activity against Yersinia pestis Colorado 92 infected in African green monkey B6873 model assessed as bacterial burden in lung at 12.5 mg/kg, iv administered within 6 hrs post onset of sustained fever as 30 mins infusion for 5 days (reference value: 7.7 10^8CFU/g); format: functional, CO92
[2] = Elimination half life in African green monkey blood at 25 mg/kg administered as iv infusion twice daily for 7 consecutive days measured on day 1 by LC-MS/MS analysis; format: ADME, organism-based; settings: chlorocebus aethiops, read-out: beta t1/2 (converted)
[3] = system: Yersinia pestis; test: Antibacterial activity against Yersinia pestis Colorado 92 infected in African green monkey 8047 model assessed as bacterial burden in lung at 6.25 mg/kg, iv administered within 6 hrs post onset of sustained fever as 30 mins infusion for 10 days (reference value: 7.7 10^8CFU/g); format: functional, CO92
[4] = system: Yersinia pestis; test: Antibacterial activity against Yersinia pestis Colorado 92 infected in African green monkey B6873 model assessed as bacterial burden in spleen at 12.5 mg/kg, iv administered within 6 hrs post onset of sustained fever as 30 mins infusion for 5 days (reference value: 1.6 10^9CFU/g); format: functional, organism-based; settings: CO92
[5] = system: Yersinia pestis; test: Antibacterial activity against Yersinia pestis Colorado 92 infected in African green monkey B6960 model assessed as bacterial burden in spleen at 6.25 mg/kg, iv administered within 6 hrs post onset of sustained fever as 30 mins infusion for 5 days (reference value: 1.6 10^9CFU/g); format: functional, CO92
[6] = system: Yersinia pestis; test: Antibacterial activity against Yersinia pestis Colorado 92 infected in African green monkey B6672 model assessed as bacterial burden in liver at 12.5 mg/kg, iv administered within 6 hrs post onset of sustained fever as 30 mins infusion for 5 days (reference value: 5.2 10^8CFU/g); format: functional, CO92
[7] = system: Yersinia pestis; test: Antibacterial activity against Yersinia pestis Colorado 92 infected in African green monkey B6783 model assessed as bacterial burden in liver at 12.5 mg/kg, iv administered within 6 hrs post onset of sustained fever as 30 mins infusion for 5 days (reference value: 5.2 10^8CFU/g); format: functional, CO92
[8] = system: Yersinia pestis; test: Antibacterial activity against Yersinia pestis Colorado 92 infected in African green monkey B6889 model assessed as bacterial burden in liver at 6.25 mg/kg, iv administered within 6 hrs post onset of sustained fever as 30 mins infusion for 5 days (reference value: 5.2 10^8CFU/g); format: functional, CO92
[9] = system: Yersinia pestis; test: Antibacterial activity against Yersinia pestis Colorado 92 infected in African green monkey 8047 model assessed as bacterial burden in liver at 6.25 mg/kg, iv administered within 6 hrs post onset of sustained fever as 30 mins infusion for 10 days (reference value: 5.2 10^8CFU/g); format: functional, CO92
[10] = system: Yersinia pestis; test: Antibacterial activity against Yersinia pestis Colorado 92 infected in African green monkey B6469 model assessed as bacterial burden in tracheobronchial lymph nodes at 25 mg/kg, iv administered within 6 hrs post onset of sustained fever as 30 mins infusion for 5 days (reference value: 7.7 10^9CFU/g); format: functional, organism-based; settings: CO92, Lymph node
[11] = system: Yersinia pestis; test: Antibacterial activity against Yersinia pestis Colorado 92 infected in African green monkey C2083 model assessed as bacterial burden in tracheobronchial lymph nodes at 12.5 mg/kg, iv administered within 6 hrs post onset of sustained fever as 30 mins infusion for 5 days (reference value: 7.7 10^9CFU/g); format: functional, CO92, Lymph node
[12] = system: Yersinia pestis; test: Antibacterial activity against Yersinia pestis Colorado 92 infected in African green monkey B6672 model assessed as bacterial burden in tracheobronchial lymph nodes at 12.5 mg/kg, iv administered within 6 hrs post onset of sustained fever as 30 mins infusion for 5 days (reference value: 7.7 10^9CFU/g); format: functional, CO92, Lymph node
[13] = system: Yersinia pestis; test: Antibacterial activity against Yersinia pestis Colorado 92 infected in African green monkey B6873 model assessed as bacterial burden in heart at 12.5 mg/kg, iv administered within 6 hrs post onset of sustained fever as 30 mins infusion for 5 days (reference value: 2.6 10^7CFU/g); format: functional, organism-based; settings: CO92
[14] = system: Yersinia pestis; test: Antibacterial activity against Yersinia pestis Colorado 92 infected in African green monkey B6672 model assessed as bacterial burden in heart at 12.5 mg/kg, iv administered within 6 hrs post onset of sustained fever as 30 mins infusion for 5 days (reference value: 2.6 10^7CFU/g); format: functional, CO92
[15] = system: Yersinia pestis; test: Antibacterial activity against Yersinia pestis Colorado 92 infected in African green monkey B6889 model assessed as bacterial burden in heart at 6.25 mg/kg, iv administered within 6 hrs post onset of sustained fever as 30 mins infusion for 5 days (reference value: 2.6 10^7CFU/g); format: functional, CO92
[16] = system: Yersinia pestis; test: Antibacterial activity against Yersinia pestis Colorado 92 infected in African green monkey B6436 model assessed as bacterial burden in blood at 25 mg/kg, iv administered within 6 hrs post onset of sustained fever as 30 mins infusion for 5 days (reference value: 1.2 10^7CFU/ml); format: functional, organism-based; settings: CO92
[17] = system: Yersinia pestis; test: Antibacterial activity against Yersinia pestis Colorado 92 infected in African green monkey B6873 model assessed as bacterial burden in blood at 12.5 mg/kg, iv administered within 6 hrs post onset of sustained fever as 30 mins infusion for 5 days (reference value: 1.2 10^7CFU/ml); format: functional, organism-based; settings: CO92
[18] = system: Yersinia pestis; test: Antibacterial activity against Yersinia pestis Colorado 92 infected in African green monkey B6106 model assessed as bacterial burden in blood at 25 mg/kg, iv administered within 6 hrs post onset of sustained fever as 30 mins infusion for 5 days (reference value: 1.2 10^7CFU/ml); format: functional, CO92
[19] = system: African green monkey; test: Toxicity in African green monkey B6140 model infected with Yersinia pestis Colorado 92 assessed as blood urea nitrogen level at 25 mg/kg, iv administered within 6 hrs post onset of sustained fever as 30 mins infusion for 10 days (reference value: 24 mg/dl); format: organism-based; settings: chlorocebus sabaeus, in vivo
[20] = system: African green monkey; test: Toxicity in African green monkey 8067 model infected with Yersinia pestis Colorado 92 assessed as serum creatinine level at 25 mg/kg, iv administered within 6 hrs post onset of sustained fever as 30 mins infusion for 10 days (reference value: 0.8 mg/dl); format: organism-based; settings: chlorocebus sabaeus, in vivo
[21] = system: African green monkey; test: Toxicity in African green monkey 7337 model infected with Yersinia pestis Colorado 92 assessed as serum creatinine level at 25 mg/kg, iv administered within 6 hrs post onset of sustained fever as 30 mins infusion for 10 days (reference value: 0.7 mg/dl); format: organism-based; settings: chlorocebus sabaeus, in vivo
[22] = system: African green monkey; test: Toxicity in African green monkey B6408 model infected with Yersinia pestis Colorado 92 assessed as serum alanine aminotransferase level at 25 mg/kg, iv administered within 6 hrs post onset of sustained fever as 30 mins infusion for 10 days (reference value: 109 IU/L); format: organism-based; settings: chlorocebus sabaeus, in vivo
[23] = system: African green monkey; test: Toxicity in African green monkey 7929 model infected with Yersinia pestis Colorado 92 assessed as serum alanine aminotransferase level at 25 mg/kg, iv administered within 6 hrs post onset of sustained fever as 30 mins infusion for 10 days (reference value: 63 IU/L); format: organism-based; settings: chlorocebus sabaeus, in vivo
[24] = system: African green monkey; test: Toxicity in African green monkey 7337 model infected with Yersinia pestis Colorado 92 assessed as serum alanine aminotransferase level at 25 mg/kg, iv administered within 6 hrs post onset of sustained fever as 30 mins infusion for 10 days (reference value: 55 IU/L); format: organism-based; settings: chlorocebus sabaeus, in vivo
[25] = system: African green monkey; test: Toxicity in African green monkey 7653 model infected with Yersinia pestis Colorado 92 assessed as serum alanine aminotransferase level at 25 mg/kg, iv administered within 6 hrs post onset of sustained fever as 30 mins infusion for 10 days (reference value: 50 IU/L); format: organism-based; settings: chlorocebus sabaeus, in vivo

SMILES: CN[C@@H]1[C@@H](O)[C@@H](O[C@@H]2[C@@H](O)[C@H](O[C@H]3OC(CNCCO)=CC[C@H]3N)[C@@H](N)C[C@H]2NC(=O)[C@@H](O)CCN)OC[C@]1(C)O [PLAZOMICIN]
- Activity [1]: 16 CFU/g
- half-life [2]: 1.8 h
- Activity [3]: 6.6 ×10⁹ CFU/g
- Activity [4]: Below limit of detection
- Activity [5]: 23 CFU/g
- Activity [6]: 76 CFU/g
- Activity [7]: 8.4 ×10⁶ CFU/g
- Activity [8]: 2.2 ×10⁷ CFU/g
- Activity [9]: 1.3 ×10⁶ CFU/g
- Activity [10]: Below limit of detection
- Activity [11]: 8 ×10⁹ CFU/g
- Activity [12]: 8.3 ×10⁶ CFU/g
- Activity [13]: Below limit of detection
- Activity [14]: 29 CFU/g
- Activity [15]: 1 ×10⁶ CFU/g
- Activity [16]: Below limit of detection
- Activity [17]: Below limit of detection
- Activity [18]: 40 CFU/ml
- Activity [19]: 27 mg/dL
- Activity [20]: 0.8 mg/dL
- Activity [21]: 0.5 mg/dL
- Activity [22]: 94 IU/L
- Activity [23]: 41 IU/L
- Activity [24]: 44 IU/L
- Activity [25]: 48 IU/L

From ChEMBL document CHEMBL3868595, “Plazomicin is effective in a non-human primate pneumonic plague model” (Bioorg Med Chem, 2016)
